One data set deals with HEK-293 cells. It is filed as cell-based, human. The settings on record: HEK-293, 25 µM, 24 h incubation, MTS. As for the experimental part: (§1) SK-OV-3, CCRF-CEM, HEK-293, MDA-MB-468, LLC-PK1, and MES-SA were used to determine the cytotoxicity of the synthesized linear and cyclic peptides. About 5000, 10,000, and 50,000 cells were seeded for SK-OV-3, HEK-293, and CCRF-CEM cells, respectively, in 0.1 mL of medium per well of 96-well plates. […]
(§2) Adhesive cells were detached with 0.05% trypsin/EDTA after 15 min. […] The cell viability was measured by utilizing Multi-Mode Microplate Reader (SpectraMax M5 model, Molecular Devices, San Jose, CA, USA) after adding 20 µL of the MTS reagent to each well and incubating for 3 additional hours. […] The percentage of cell viability was calculated using the following equation:(1) =(Average OD values of samples treated with the compound /Average OD values of no treatment samples )∗100

A further data set relates to MES-SA cells. The data set is described as follows: In vitro cytotoxicity (MTS) in MES-SA cells. It counts as cell-based, human. The settings on record: 10 µM, 24 h incubation, n = 3. As to the method:
as §1, §2

The nature of another data set: Plasma stability study. It counts as in vitro ADME. The settings on record: 500 µM in 25% human plasma in water, 37 °C. As for the experimental part: The metabolic stability of [DipR]5 was assessed in human plasma by using a high-resolution mass spectrometer (LC-QTOF-MS). To remove the background interference, the data were processed by using a narrower (±0.1 m/z) extracted ion chromatogram (EIC) window. Test compound (500 µM) was incubated in 25% human plasma in water at 37 °C. 50 µL aliquots were taken at different time points (0, 0.5, 1, 2, 3, and 13 h), and the plasma proteins were precipitated by the addition of cold ethanol (50 µL) and incubated for 5 min in ice and water. The samples were centrifuged at 7000 RPM for 5 min, and the supernatant (10 µL) was injected into LC-QTOF-MS (Impact II model, Bruker Daltonik, Bremen, Germany). The samples were analyzed on Waters Xterra MS C18 5 µm 2.10 mm × 50 mm column at a flow rate of 0.3 mL/min using a linear gradient of aqueous ACN in the presence of formic acid (0.1%, v/v) as ion pair reagent. The analytes were quantified by their peak areas of EIC. The percentage digestion of the test compound was calculated relative to the peak areas at 0 min.

A further data set deals with MDA-MB-231 cells. The data set is described as follows: Cellular uptake of F’-siRNA by flow cytometry in MDA-MB-231 cells. It is filed as cell-based, human. The settings on record: MDA-MB-231, F’-siRNA 36 nM, n = 3. In general terms: A flow cytometer gives signals particle by particle.
The next data set has as its system SK-OV-3 cells. It counts as cell-based, human. The settings on record: MTS, n = 3. As for the experimental part:
SK-OV-3, CCRF-CEM, HEK-293, MDA-MB-468, LLC-PK1, and MES-SA were used to determine the cytotoxicity of the synthesized linear and cyclic peptides. About 5000, 10,000, and 50,000 cells were seeded for SK-OV-3, HEK-293, and CCRF-CEM cells, respectively, in 0.1 mL of medium per well of 96-well plates. An appropriate medium was used for each cell line (SK-OV-3: McCoy’s 5A with L-glutamine containing fetal bovine serum (FBS) (10%) and penicillin or streptomycin (1%); CCRF-CEM: RPMI-1640 medium with L-glutamine and sodium bicarbonate containing FBS (10%) and penicillin or streptomycin (1%); MDA-MB-468 cells: DMEM/F12 (1:1) (1×) with L-glutamine and 15 mM HEPES containing FBS (10%) and penicillin or streptomycin (1%); LLC-PK1 cells: Dulbecco’s Modified Eagle’s Medium with 4500 mg/L glucose, L-glutamine and sodium bicarbonate, without sodium pyruvate liquid containing FBS (10%) and penicillin or streptomycin (1%); MES-SA cells: consisting of half SK-OV-3 and half CCRF-CEM media; and HEK-293 cells: Minimum Essential Medium Eagle with Earle’s salts and sodium bicarbonate, without L-glutamine containing FBS (10%) and penicillin or streptomycin (1%)). Then, 20 µL of peptides containing 5% DMSO in water were added to each well.
Adhesive cells were detached with 0.05% trypsin/EDTA after 15 min. The suspended cells were seeded in the medium 24 h prior to the experiment according to the previously reported procedure. The medium was changed before adding the peptides for adherent cells. Each concentration 5, 10, 25, 50, and 166 µM (containing 0.8% DMSO) had triplicate wells to minimize possible errors. […] The cell viability was measured by utilizing Multi-Mode Microplate Reader (SpectraMax M5 model, Molecular Devices, San Jose, CA, USA) after adding 20 µL of the MTS reagent to each well and incubating for 3 additional hours. […] The protocol manager was selected “endpoint” on the spectrophotometer’s software (SoftMax Pro 7). The 96-well plates were inserted inside spectrophotometer, and the data were acquired. The percentage of cell viability was calculated using the following equation:(1) =(Average OD values of samples treated with the compound /Average OD values of no treatment samples )∗100

Like-named read-outs stand apart in the source and are kept apart here. Non-standard residues stand in square brackets, D forms with d. Residues, ends and D or L forms follow the SMILES beside them. Dip = N[C@H](C(=O)O)C(c1ccccc1)c1ccccc1

Data on 1 compound can be found in paper PMC8997995, “Amphiphilic Cell-Penetrating Peptides Containing Natural and Unnatural Amino Acids as Drug Delivery Agents” (Cells, 2022).

Take `N=C(N)NCCC[C@@H]1NC(=O)[C@H](C(c2ccccc2)c2ccccc2)NC(=O)[C@H](CCCNC(=N)N)NC(=O)[C@H](C(c2ccccc2)c2ccccc2)NC(=O)[C@H](CCCNC(=N)N)NC(=O)[C@H](C(c2ccccc2)c2ccccc2)NC(=O)[C@H](CCCNC(=N)N)NC(=O)[C@H](C(c2ccccc2)c2ccccc2)NC(=O)[C@H](CCCNC(=N)N)NC(=O)[C@H](C(c2ccccc2)c2ccccc2)NC1=O` [[DipR]5] (cyclo([Dip]R[Dip]R[Dip]R[Dip]R[Dip]R)): the “reduction of cell proliferation” value was 56% in the data set on HEK-293 cells; 38% with MES-SA cells; 75% in the data set on SK-OV-3 cells (SK-OV-3, 10 µM, 72 h incubation); 81% with SK-OV-3 cells (SK-OV-3, 25 µM, 24 h incubation). For the same compound, the “stability in human plasma” value in “Plasma stability study” (0-13 h, LC-QTOF-MS) is on record as “high stability”. Also, in “Plasma stability study” (after 1 h, LC-QTOF-MS EIC peak area relative to 0 min, read-out: degradation in human plasma), the metabolised at 1 h, 500 µM is approximately 15%. The “increase of cellular uptake of F’-siRNA vs siRNA alone” value in the data set with MDA-MB-231 cells (N/P ratio 10, 24 h) stood at 30 fold; with MDA-MB-231 cells (N/P ratio 20, 24 h), 50 fold.
